Two compounds from patent US12642788B2, “Pharmaceutical composition comprising benzimidazole derivative compound” (HK INNO.N CORPORATION, priority 2020, dated 2026) can be followed below.

Assay type in all cases: in vivo, C57BL/6 male mice
The subject of assay [1] is colitis induced by dextran sodium sulfate (DSS). The assay is described as follows: Mouse model of colitis using DSS (body weight, length of large intestine, DAI). As to conditions: 30 mg/kg/day oral twice a day; for decrease in body weight: vs day 0 = 100%. The method, then: Mouse Model of Colitis Using DSS C57BL/6 male mice, which were eight weeks old (24.0 g), were purchased from Orient Bio, acclimated to the laboratory environment (temperature of 21±2° C. and humidity of 50±10%) for one week with a full access to feed and water, and used in an experiment. The mice were divided into a normal control group (Control, n=6), a group with induced colitis (DSS+Veh, n=8), a group dosed with tegoprazan (DSS+Tegoprazan, n=8), and a group dosed with a control drug (DSS+Rabeprazole, n=8), and the experiment was performed. To induce colitis, DSS (MPbio product, catalog No. 0216011080) was used. The group with induced colitis (DSS+Veh) was dosed with 2.0% DSS in drinking water for consecutive five days, was suspended from 2.0% DSS administration from the 5th day, and was orally dosed with 0.5% (w/v) methylcellulose aqueous solution twice a day for three days until the 8th day. The group dosed with tegoprazan (DSS+Tegoprazan) was orally dosed with tegoprazan (7-{[(4S)-5,7-difluoro-3,4-dihydro-2H-chromen-4-yl]oxy}-N,N,2-trimethyl-1H-benzi midazole-5-carboxamide), which was dissolved in 0.5% (w/v) methylcellulose aqueous solution, at a dose of 30 mg/kg/day twice a day for five days along with 2% DSS and drinking water. The group was suspended from 2.0% DSS administration from the 5th day, and was orally dosed with tegoprazan, which was dissolved in 0.5% (w/v) methylcellulose aqueous solution, twice a day for three days until the 8th day. The group dosed with the control drug (DSS+Rabeprazole) was dosed with DSS and rabeprazole in substantially the same manner as the group dosed with tegoprazan, except for using rabeprazole instead of tegoprazan. In the group dosed with tegoprazan and the group dosed with the control drug, the oral administration was performed twice a day by dividing the administration into morning/afternoon. The body weight of each mouse was measured with regard to the normal control group, the group with induced colitis, the group dosed with tegoprazan, and the group dosed with the control drug. The body weight of the mouse was measured every morning from the start day of experiment (day 0), in which DSS was not administered, until the 9th day, and the body weight of the mouse, which was measured on the start day of experiment (day 0) without the administration of DSS, was converted into 100%. On the 9th day after an initial administration of 2% DSS solution, the mouse was sacrificed and the colon was removed therefrom to measure the length of the removed large intestine. (In FIG. 2, * indicates P<0.05 and ** indicates P<0.01.) As DAI, a change in body weight, bloody stool and stool viscosity were measured every morning, and scored according to the following table 1.

The subject of assay [2] is colitis induced by 2,4-dinitrobenzenesulfonic acid hydrate (DNBS). The assay is described as follows: Mouse model of colitis using DNBS (body weight, length of large intestine, DAI, survival rate). Particulars: for body weight: day 0 = 100%; for survival rate: as of day 5. On the procedure: Mouse Model of Colitis Using DNBS
C57BL/6 male mice, which were eight weeks old (24.0 g), were purchased from Orient Bio, acclimated to the laboratory environment (temperature of 21±2° C. and humidity of 50±10%) for one week with a full access to feed and water, and used in an experiment.
The mice were divided into a normal control group (Control, n=6), a group with induced colitis (DNBS+Vehicle, n=8), a group dosed with tegoprazan (DNBS+Tegoprazan, n=8), and a group dosed with a control drug (DNBS+Rabeprazole, n=8), and the experiment was performed.
To induce colitis, DNBS (Sigma-Aldrich product, catalog No. 556971) was used. The mice were fasted from one day before being dosed with DNBS to remove the fecal waste in the intestine. The normal control group was dosed with 50% ethanol only by rectal route.
The administration of DNBS was done by dissolving 5 mg of DNBS in 50% ethanol and administering it by rectal route.
In the group dosed with tegoprazan (DNBS+Tegoprazan), the DNBS-administered mouse was orally dosed with tegoprazan (7-{[(4S)-5,7-Difluoro-3,4-dihydro-2H-chromen-4-yl]oxy}-N,N,2-trimethyl-1H-benzi midazole-5-carboxamide), which had been dissolved in 0.5% (w/v) methylcellulose aqueous solution, at a dose of 30 mg/kg/day twice a day for five days.
In the group dosed with the control drug (DNBS+Rabeprazole), the DNBS-administered mouse was dosed with rabeprazole in substantially the same manner as the group dosed with tegoprazan, except for using rabeprazole instead of tegoprazan.
In the group with induced colitis (DNBS+Vehicle), the DNBS-administered mouse was orally dosed with 0.5% (w/v) methylcellulose aqueous solution twice a day.
In the group dosed with tegoprazan, the group dosed with the control drug, and the group with induced colitis, the oral administration was performed twice a day by dividing the administration into morning/afternoon. After being dosed for four days, the mouse was sacrificed on the 5th day.
The body weight of each mouse in the normal control group, the group with induced colitis, the group dosed with tegoprazan, and the group dosed with the control drug was measured. The body weight of the mouse was measured every morning from the start day of experiment before administration of DNBS (day 0) to the 5th day, and the body weight of the mouse before administration of DNBS on day 0 was converted into 100%. In the case of the mouse sacrificed before the end of experiment, the weight of the mouse measured the day before sacrifice was included in the data as of the last day of experiment and converted (refer to FIG. 15 for survival period and survival rate).
On the 5th day after an initial administration of DNBS, the mouse was sacrificed, and the colon was removed therefrom to measure the length of the removed large intestine. (In FIG. 10, * indicates P<0.05.)
As DAI, a change in body weight, bloody stool and stool viscosity were measured every morning, and scored according to the following table 1.
(In relation to the animal model of colitis using DNBS, in the case of the mouse sacrificed before the end of experiment, the DAI score of the mouse measured the day before sacrifice was included in the data as of the last day of experiment and converted (refer to FIG. 15 for survival period and survival rate).)

Assay [3] has as its system colonic tissues. The assay is described as follows: PAS staining analysis and damage to colonic tissues, DSS model. As to conditions: for scored degree of damage to colonic tissues: score per Table 3. On the procedure:
(§1) PAS staining analysis was performed on colonic tissues obtained from each of the animal models in which DSS and DNBS had been used, the goblet cell loss was scored according to the following table 2, and the degree of tissue damage was scored according to the following table 3. [table] [table]

For assay [4], the system named is colonic tissues. The assay is described as follows: PAS staining analysis and damage to colonic tissues, DNBS model. The method, then: as §1
Assay [5] concerns KCNJ1 mRNA. The assay is described as follows: KCNJ1 mRNA expression in colonic tissues, real-time PCR, DSS model. Particulars: 30 mg/kg/day oral. The method, then: In the mouse model of colitis using DSS, the difference in expression of KCNJ1 mRNA was measured by using a real-time PCR. (In FIG. 4, ** indicates P<0.01.)
The subject of assay [6] is TNF-α. The assay is described as follows: TNF-α mRNA expression in colonic tissues, real-time PCR, DSS model. Particulars: compared to the group with induced colitis. The method, then:
(§2) In the mouse model of colitis using DSS, the level of mRNA expression of IL-1p, IL-6, Muc 2 and TNF-α was evaluated by using a real-time PCR. (In FIG. 5, * indicates P<0.05, ** indicates P<0.01, and *** indicates P<0.001.)

The subject of assay [7] is IL-6. The assay is described as follows: IL-6 mRNA expression in colonic tissues, real-time PCR, DSS model. As to conditions: compared to the group with induced colitis. On the procedure:
as §2
(In general: Quantitative PCR measures a nucleic acid by following its amplification.)

The subject of assay [8] is Muc2. The assay is described as follows: Muc2 mRNA expression in colonic tissues, real-time PCR, DSS model. The method, then: as §2
Assay [9] deals with IL-1β. The assay is described as follows: IL-1β production/expression in colonic tissues, DSS model. The method, then:
as §2

Assay [10] deals with IL-17. The assay is described as follows: IL-17 mRNA expression in colonic tissues, real-time PCR, DNBS model. Particulars: compared to the group with induced colitis. The method, then: In the mouse model of colitis using DNBS, the level of mRNA expression of IL-17 was evaluated by using a real-time PCR. (In FIG. 12, ** indicates P<0.01 and *** indicates P<0.001.)
For assay [11], the system named is TNF-α. The assay is described as follows: TNF-α mRNA expression in colonic tissues, DNBS model. As to conditions: compared to the group with induced colitis.
For assay [12], the system named is IL-6. The assay is described as follows: IL-6 mRNA expression in colonic tissues, DNBS model. Particulars: compared to the group with induced colitis.
Assay [13] deals with tight junction (intestinal permeability). The assay is described as follows: FITC-dextran permeability, DSS model. As to conditions: FITC value in serum 4 hours after oral FITC-dextran. The method, then: Four hours before the mouse was sacrificed in the mouse model of colitis using DSS, the mouse was orally dosed with FITC-dextran (80 mg/mL), after which cardiac puncture was performed to measure an FITC value in serum. Permeability (%) was converted based on the normal control group.

Where [14] appears, read: 5th day, 30 mg/kg/day oral twice a day.

`COCCCOc1ccnc(C[S+]([O-])c2nc3ccccc3[nH]2)c1C` (centres unmarked) [control drug, rabeprazole, reference compound]: the “decrease in body weight” value in assay [1] (9th day) was “about 23%”. The body weight in [2] (setting [14]) came out at 89%. This compound also showed a survival rate in assay [2] of 75%. Besides, the figures for the “scored degree of damage to colonic tissues” value in [3] and in assay [4] (score per Table 3) were 8.12±1.8 point and 7.0±1.4 point, respectively.

On to `Cc1nc2cc(C(=O)N(C)C)cc(O[C@H]3CCOc4cc(F)cc(F)c43)c2[nH]1` [tegoprazan, (S)-4-(5,7-difluorochroman-4-yloxy)-N,N,2-trimethyl-1H-benzo[d]imidazole-6-carbox amide], for which the “length of the large intestine” value in [1] (9th day) is reported as “a rather increase in the length of the large intestine or no difference from the normal control group”; in assay [2] (setting [14]), “no difference in the length of the large intestine from the normal control group”. The “decrease in body weight” value in assay [1] (9th day) was “about 14%”. Moreover, the “disease activity index (DAI) score” value in assay [1] (to 9th day) is given as “took a turn for the better compared to the group with induced colitis”; in [2] (to 5th day, 30 mg/kg/day oral twice a day), “DAI drastically decreased from the 4th day”. Besides, the body weight result in [2] (setting [14]) is “about 105%”. In addition, the survival rate entry in assay [2] is reported as “all the subjects in the group dosed with tegoprazan survived until the last day of experiment”. For the same compound, the “expression of KCNJ1 mRNA” value in assay [5] is reported as “significant decrease in expression of KCNJ1 mRNA”. Further, the “mRNA expression of TNF-α” value in assay [6] is listed as “statistically significant decrease”; in [11] it was “tended to decrease”. For the same compound, the “mRNA expression of IL-6” value in assay [7] is recorded as “statistically significant decrease”; in assay [12] it was “tended to decrease”. In addition, the “mRNA expression of Muc2” value in [8] is “statistically significant increase”. In assay [9], the “production/expression of IL-1β” value is given as “inhibits the production/expression”. Further, in assay [10], the “mRNA expression of IL-17” value is “significant decrease”. Also, the “crypt damage (PAS staining)” value in assay [3] (colonic tissues) and in assay [4] (colonic tissues) was “partially intact crypt was observed” throughout. For the same compound, the figures for the “goblet cells (PAS staining)” value in assay [3] (colonic tissues) and in assay [4] (colonic tissues) were “goblet cells were also present compared to the group with induced colitis” and “presence of mucin-producing goblet cells was confirmed”, respectively. Also, the “scored degree of damage to colonic tissues” value in assay [3] is given as 5.38±1.8 point. The “damage to the tight junction (FITC-dextran permeability)” value in assay [13] is “significant decrease in the damage to the tight junction”.
